Reference: paper PMC5760734, “Development of an oral once-weekly drug delivery system for HIV antiretroviral therapy” (Nature Communications, 2018)
Like-named read-outs stand apart in the source and are kept apart here.

Assays:
[1] = Drug stability in simulated gastric fluid (SGF), HPLC; settings: SGF pH ~1.2, 37 °C, 24 h, salt forms
Protocol: To determine drug stability at low pH, the drugs were dissolved in methanol to form a concentrated stock solution. Methanol solutions were then diluted 20-fold in simulated gastric fluid, USP without pepsin (pH ~1.2; henceforth referred to as SGF). Drug solutions were then placed in a shaker incubator (New Brunswick™ Innova® 44, Eppendorf, USA) at 37 °C and 150 r.p.m. At various times, aliquots were withdrawn and stored at −20 °C until analysis. Drug concentrations in the solution were analysed using HPLC and reported as percent of the initial concentrations.
The output signal was monitored and processed using ChemStation® software (Agilent Technologies Inc., USA). Chromatographic separation was carried out on a 50 mm × 4.6 mm EC-C18 Agilent Poroshell 120 analytical column with 2.7 µm spherical particles.
The injection volume was 5 µL, and the UV detection wavelength of 260 nm was selected.
For RPV, the stationary phase was maintained at 40 °C. The mobile phase consisted of methanol: water (pH 3.5 adjusted with 0.1% formic acid) (43:57 v/v) at a flow rate of 0.9 mL/min over a 10 min run time. The injection volume was 20 µL, and the UV detector was set at 290 nm.
For CAB, the column was maintained at 45 °C and the optimized mobile phase consisted of acetonitrile: water (pH 3.5 adjusted with 0.1% formic acid) (30:70 v/v) at flow rate of 0.8 mL/min over an 8 min run time. For analysis, 5 µL of the sample was injected on to the column, and the samples were analysed at a wavelength of 260 nm.
For tenofovir alafenamide, the column was maintained at 22 °C. The mobile phase consisted initially of acetonitrile: water (pH 3.5 adjusted with 0.1% formic acid) (100:0 v/v). […] The flow rate was 0.6 mL/min and the run time was 8 min. The injection volume was 10 µL, and the UV detection wavelength of 260 nm was selected.

[2] = Drug stability at high temperature (150 °C, 2 h), HPLC; format: physicochemical; settings: 150 °C for 2 h
Protocol: To determine the drug stability at high temperatures, the drug was weighed in a 20 mL glass vial, and placed in a convection oven at 150 °C for 2 h. Drug was dissolved in methanol, and the concentration was compared to that of an unheated standard of the same initial concentration via HPLC.

[3] = Drug release from polymer matrices in SGF; format: physicochemical; settings: for drug released: n = 3
Protocol: Drug loaded polymer matrices were synthesized by melt mixing. Appropriate amounts of drug and polymer were weighed and mixed in a 20 mL glass vial. The vial was then placed in a convection oven at 130 °C to melt the polymer. The mixture was then transferred to a negative mould heated to the same temperature. Once the mould was filled with the melted mixture, it was removed from the oven and cooled at room temperature.
Drug release studies were performed in SGF supplemented with 5%w/w Tween® 20. The drug–polymer matrices were placed in 50 mL release media at 37 °C in an incubator shaker at 150 r.p.m. At various times, about 1 mL of the media was collected and stored at −20 °C until further analysis. The rest of the media was discarded and the drug–polymer matrix was placed in fresh media. Drug concentrations in the aliquots were measured using HPLC as described previously.

[4] = design: method as in ref 58 (a number printed in a supplementary file, which may have a reference list of its own: not looked up in the article's list); settings: cited from earlier work
[5] = tested on: HIV reference strain NL4-3; design: method as in ref 46,55–57 (a number printed in a supplementary file, which may have a reference list of its own: not looked up in the article's list); settings: wild-type virus; cited from earlier work
[6] = tested on: drug-resistant HIV strains; settings: cited from earlier work
[7] = humans receiving the usual oral dose; stated by Reviewer 1, no reference; cited from earlier work

SMILES: C[C@@H]1CCO[C@H]2Cn3cc(C(=O)NCc4ccc(F)cc4F)c(=O)c(O)c3C(=O)N12 [DTG, dolutegravir]
- stability in SGF [1]: stable
- stability at elevated temperature [2]: stable
- drug released ([3]; PCL matrix, over a week): 5%
- total drug release from poly(anhydrides) relative to PCL ([3]; poly(anhydride) matrices vs PCL): 4–8 fold
- drug released ([3]; poly(ethylene glycol) matrix, within the first 6 h): 60–70%
- Half-life, τ1/2 [4]: 14 h
- Cmax ([4]; maximum plasma concentration at steady state, perfect adherence): 8.75 µM
- IC50 [5]: 70 nM
- m (slope parameter of Hill curve) [5]: 1.2
- Fold change in IC50 (ρ) ([6]; mutation E138K/Q148K): 19.00
- Fold change in IC50 (ρ) ([6]; mutation E138K): 0.40
- Fold change in IC50 (ρ) ([6]; mutation E157Q/R263K): 19.90
- Fold change in IC50 (ρ) ([6]; mutation E157Q): 0.01
- Fold change in IC50 (ρ) ([6]; mutation G140S/Q148R): 7.98
- Fractional change in slope (σ) ([6]; mutation G140S/Q148R): 0.01
- Fold change in IC50 (ρ) ([6]; mutation G140S): 0.76
- Fractional change in slope (σ) ([6]; mutation G140S): -0.01
- Fold change in IC50 (ρ) ([6]; mutation H51Y/R263K): 6.95
- Fold change in IC50 (ρ) ([6]; mutation H51Y): 1.25
- Fold change in IC50 (ρ) ([6]; mutation M50I/R263K): 15.59
- Fold change in IC50 (ρ) ([6]; mutation M50I): 1.94
- Fold change in IC50 (ρ) ([6]; mutation N155H): 1.96
- Fold change in IC50 (ρ) ([6]; mutation Q148K): 1.10
- Fold change in IC50 (ρ) ([6]; mutation Q148R/N155H): 10.00
- Fold change in IC50 (ρ) ([6]; mutation Q148R): 1.20
- Fold change in IC50 (ρ) ([6]; mutation R263K): 2.00
- usual Cmax in humans [7]: 3700 ng/mL
